Two substances from paper PMC7261199 (Chemistry (Weinheim an der Bergstrasse, Germany), 2020) can be followed below.

The assay has as its target prostate-specific membrane antigen (PSMA) (Homo sapiens, UniProt Q04609). As to the kind of experiment: radioligand displacement of […]mTc-MIP-1427 in PSMA-expressing PC-3 PiP cells. Type of assay: cell-based.

Chain of prostate-specific membrane antigen (PSMA) (Q04609 whole entry): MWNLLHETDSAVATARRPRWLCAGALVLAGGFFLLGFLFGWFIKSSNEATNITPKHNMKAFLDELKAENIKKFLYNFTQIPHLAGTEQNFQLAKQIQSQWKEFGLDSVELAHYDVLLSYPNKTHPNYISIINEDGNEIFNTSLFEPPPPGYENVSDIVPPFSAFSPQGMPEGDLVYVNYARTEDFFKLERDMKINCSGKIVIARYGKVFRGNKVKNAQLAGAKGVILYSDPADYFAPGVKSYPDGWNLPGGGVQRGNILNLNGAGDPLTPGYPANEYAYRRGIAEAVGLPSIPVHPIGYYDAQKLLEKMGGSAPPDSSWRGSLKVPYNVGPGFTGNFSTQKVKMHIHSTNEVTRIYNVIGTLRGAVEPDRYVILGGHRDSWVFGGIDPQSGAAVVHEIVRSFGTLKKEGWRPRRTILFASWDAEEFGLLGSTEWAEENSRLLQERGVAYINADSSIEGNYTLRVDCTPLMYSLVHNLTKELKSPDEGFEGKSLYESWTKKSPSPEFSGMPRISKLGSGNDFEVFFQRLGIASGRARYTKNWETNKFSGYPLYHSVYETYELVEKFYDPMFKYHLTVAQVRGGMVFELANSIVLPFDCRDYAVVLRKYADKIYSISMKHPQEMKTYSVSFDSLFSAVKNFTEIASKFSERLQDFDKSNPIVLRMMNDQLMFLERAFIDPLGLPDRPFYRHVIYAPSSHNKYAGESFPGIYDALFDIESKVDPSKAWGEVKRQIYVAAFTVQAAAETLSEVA

For the substance La(DO2Apic)-DUPA, the Ki (in general, the dissociation constant of the complex between target and ligand, obtained from inhibition or displacement) was 12 ± 3 nM.
To La(macropa)-DUPA belongs 17 ± 2 nM.
